How the values were obtained:
APase promoter = assay: GUS expression in Pr-GUS transformants grown in sand culture (specificity of APase promoter induction); assay type: in vivo, Arabidopsis thaliana; set-up: key to relative GUS expression: “−” (lowest); “+/−,”; “+,”; “++,”; “+++” (highest); conditions: for relative GUS expression: 100 μM, 14-day-old seedlings
Method: A screening method was developed to evaluate GUS expression levels in the various transformed lines: T2 seedlings were germinated in pots containing fine granules of washed sand (40-100 mesh Fisher Scientific, Pittsburgh, Pa.). To remove trace amounts of contaminating elements, the sand was previously washed by soaking it in 0.1 M HCl for 45 minutes and then washing it extensively with ddH2O until the sand mixture reached pH 6.5. Seedlings were grown in standard phosphorus medium for 14 days before transfer to phosphorus-deficient medium. GUS expression in plants subjected to phosphorus-deficient conditions for 14 days is shown in FIGS. 4A-4D (FIG. 4A—lateral root primordium with localized GUS expression, FIG. 4B—GUS expression in several cell layers of lateral root primordium; FIG. 4C—emerging lateral root meristem; FIG. 4D—lateral root meristems (LRM) and an apical root meristem (ARM)). Seedlings were also germinated in pots containing washed sand, and then fertilized using 0.25×Hoagland's medium with or without phosphorus (0.25 mM), and examined after 10 days. GUS expression in the roots of these seedlings (FIG. 4F) or in the whole seedlings (FIG. 4G—not starved; FIG. 4H—starved) is shown. Phosphorus starvation symptoms were evident 8 days after sowing. Plant expression was examined by staining with x-gluc (i.e., 5-bromo-4-chloro-3-indolyl β-D-glucuronide), as described below, to evaluate GUS expression.
GUS activity was determined according to the method of Jefferson et al., EMBO J. 6:3901-3907 (1987). After staining, tissue was fixed in 1.5% formaldehyde-4% acetic acid-30% ethanol for 30 minutes, dehydrated through a graded ethanol series (50, 95, 100% for 20 minutes at each step), incubated 2 hours at 100% ethanol, and rehydrated through a graded ethanol series (95 and 50%, for 20 minutes each step). Rehydrated tissues were stored in H2O.
Pr-GUS transformants, germinated and grown in sand culture, were used to test the specificity of APase promoter induction by either inducing nutritional deficiencies other than P-limitation or by using such known chemical inducers of gene expression as salicylic acid (Ward et al., Plant Cell 3:1085-1094 (1991)) and jasmonic acids (Staswick, et al., Plant Physiol 96:130-136 (1991), Creelman et al., New Phytol. 75:479-490 (1992)) (Tables 1 and 2). Seedlings were germinated in pots containing washed sand and fertilized with modified 0.25×Hoagland's medium optionally lacking nitrogen (N), potassium (K), or iron (Fe). Nitrogen-free Hoagland's medium was prepared by substituting K2HPO4 for (NH4)2SO4, CaSO4 for Ca(NO3)2 and K2SO4 for KNO3. Potassium-free Hoagland's medium was prepared by substituting NaNO3 for KNO3. Iron deficient medium was prepared by removing Fe-EDTA from the medium composition. Aqueous solutions of salicylic acid (SA), jasmonic acid (JA), and mannose were supplied to 14-day-old seedlings by spraying until solutions ran off the seedlings; approximately 20 ml of 2.5-fold concentrated solution was added to the sand at the same time.
Both chemical inducers were applied at concentrations capable of strongly inducing a variety of plant genes. These treatments were compared to the effects of P removal (Table 1, where “P” is phosphorus, N is nitrogen, K is potassium, and Fe is iron, “+” indicates presence and “−” indicates absence, and relative expression is indicated on a scale of “−” (lowest), “+/−,” “+,” “++,” to “+++” (highest)) or the addition of mannose (Table 2, where is indicated on a scale of “−” (lowest), “+/−,” “+,” “++,” to “+++” (highest)). Mannose is known to induce P deficiency in plant cells by virtue of its ability to bind cellular phosphates as mannose 6-phosphate (Watkins, et al., Plant Physiol. 97:139-146 (1987)), thereby acting as an agent that associates with a phosphorus compound. […] Seventeen days after sowing, the experiment was terminated.

acid phosphatase (APase) = assay: APase activity in growth medium of B. juncea plants (p-NPP substrate, 410 nm); assay type: in vivo, Brassica juncea; conditions: after 6 days incubation
Method: Expression and secretion studies of B. juncea began with the germination of B. juncea seeds in Petri dishes on Gamborg's B-5 (Life Technologies, Gibco BRL, Grand Island, N.Y.) agar medium. Germinated seedlings were then transferred to 20 ml vials containing one-quarter-strength Hoagland's solution (Arnon et al., Soil Sci. 50:463-483 (1940)). Plants were grown in shaker-incubators (25 rpm), at 24° C. under a 16-hour photoperiod, with 150 mE/m^2/s illumination provided by a mixture of fluorescent and incandescent lamps. After 10 days, plants were transferred into 125 ml flasks with 120 ml of 0.25×Hoagland solution containing one of the following concentrations of phosphorus: 3 mM, 1 mM, 0.25 mM or 0.01 mM (i.e., phosphorus deficiency). In the low phosphorus medium, (NH4)2SO4 was substituted for NH4H2PO4. The volume of medium in each flask was adjusted daily to 120 ml and the exudate-containing media were sampled for APase activity.
Unconcentrated media samples were subjected to chromogenic determination at 410 nm. The activity of APase in the growth medium was determined using p-nitrophenyl-1-phosphate (p-NPP, Sigma Chemical Co., St. Louis, Mo.) as substrate and 50 mM Na-acetate buffer, pH 4.6, in a water bath at 37° C. (Ascencio, J., J. Plant Nutr. 20:9-26 (1997)). The reaction was stopped after 1 hour with a 1 M Na2CO3 solution and the yellow p-nitrophenol (PNP) was measured at 410 nm in a DU 640 Spectrophotometer (Beckman Instruments, Columbia, Md.). […] Thus, expression of the exuded A. thaliana APase was de-repressed by phosphorus starvation.

Structure (SMILES) | relative GUS expression (APase promoter; 1 day after treatment) | relative GUS expression (APase promoter; 3 days after treatment) | relative GUS expression (APase promoter; 5 days after treatment) | relative GUS expression (APase promoter; 7 days after treatment) | expression of GUS on addition of phosphorus to the medium (APase promoter; phosphorus-starved plants) | APase activity in exudate-containing medium (acid phosphatase (APase); 0.01 mM phosphorus) | APase activity in exudate-containing medium (acid phosphatase (APase); 0.25 mM phosphorus) | APase activity in exudate-containing medium (acid phosphatase (APase); 1 mM phosphorus) | APase activity in exudate-containing medium (acid phosphatase (APase); 3 mM phosphorus)
CC/C=C\C[C@H]1C(=O)CC[C@@H]1CC(=O)O [jasmonic acid] | − | − | − | − |  |  |  |  | 
[P] [phosphorus] |  |  |  |  | diminished | ~0.33 A410/(ml-hour) | ~0.21 A410/(ml-hour) | ~0.09 A410/(ml-hour) | approximately 0.04 A410/(ml-hour)
O=C(O)c1ccccc1O [salicylic acid] | − | + | − | +/− |  |  |  |  | 

— patent US6544789B1, “Phosphorus-controllable recombinant expression of polypeptides in plants” (Board of Trustees, Rutgers, The State University of New …, priority 2000, dated 2003)
